Measured values published in patent US4346082A, “Method of employing therapeutic composition comprising ammonium or substituted ammonium compounds for treatment of alcoholism” (The Vinoxen Company, priority 1981, dated 1982).
Read-outs that look alike come from different tables or passages of the source.

How the values were obtained:
[1] = pH of 5 weight percent aqueous salt solution; type: physicochemical; conditions: 5 g salt per 100 g aqueous solution, 25° C
Method: For each salt, 5.000 grams of reagent grade material was weighed and added to 95.00 grams of water. […] The instrument was allowed to equilibrate for three minutes between each sample, and the electrodes were rinsed with carbonate-free deionized water. Manual temperature control was set at 25° C.

effects of alcohol [2] = test: Efficacy in altering the effects of alcohol administered to mice; type: in vivo; conditions: for comparative effect on mice of ammonium thiosulfate and ammonium sulfate: series of tests in mice
Method: Tests of some of the compounds encompassed within the scope of this invention were carried out with mice to determine efficacy in altering the effects of alcohol administered to the test animals.

humans [3] = test: Toxicity in humans, repeated administration of capsules; conditions: up to 20 capsules per day (1 gram/capsule) for 10 days
mice [4] = test: Acute, subacute and chronic toxicity in mice, gastric catheter
rats [5] = test: Acute, subacute and chronic toxicity in rats, gastric catheter
[6] = tested on: effect of alcohol on a human brain; conditions: publication DOT HS-801 208 (1974); cited from earlier work
[7] = tested on: ethanol-induced neurological deficit; conditions: for Fraction Protected / Percent (protected): 0.6 ml/mouse
Method: They were deprived of food, but not water, for a period of five hours preceding the test. […] Ten minutes later the animals were tested for neurological deficit or its absence in the usual manner as described in Example 1. A separate group of fasted by non-pretreated mice served as ethanol controls.

[8] = tested on: manifestations of the effects of alcohol; conditions: 1 or 2 capsules of 1 gram after 1 or 2 alcoholic drinks; in some cases
Text: Throughout the specification and claims reference to an alcoholic drink means reference to an aqueous mixture of ethanol containing about 15-25 grams of ethanol per drink.

[9] = tested on: ethanol-induced neurological deficit
Method: (§1) Neurological deficit was recorded if the animal was unable to remain on the rod for at least 10 seconds.

[10] = tested on: ethanol-induced neurological deficit; conditions: for Fall from rod in 10 sec. (individual mouse): 0.6 ml of 10% solution oral, 30 min before 0.5 ml 30% ethanol oral; for No. Protected/No. Treated: 0.6 ml/mouse of 10% solution oral, ethanol 0.5 ml/mouse; for effectiveness as inhibitors of ethanol-induced neurological deficit: at the dose used (0.6 ml/mouse of 10% solution)
Method: as §1
Each composition was prepared freshly as a 10% aqueous solution from the crystalline preparation. A dose of 0.6 ml/mouse was administered orally to 10 mice for each compound. […] A group of 10 untreated mice were used as controls.

mice [11] = conditions: mouse, in vivo
rats [12] = conditions: rat, in vivo
humans [13] = conditions: in vivo
effects of alcohol [14] = test: Efficacy in altering the effects of alcohol in humans; conditions: compared with ammonium sulfate
neurological deficit [15] = tested on: neurological deficit
Method: Ten minutes later the animals were placed, individually, on a rotored, rotating at 6 rpm. […] Absence of neurological deficit was similarly recorded (+) if the animal had sufficient coordination and muscular power to remain on the rotating rod for 10 seconds or more.

neurological deficit [16] = conditions: i.p., fasted mice; 0.12-0.19 at 95% confidence limit
Method: Further, and in order to avoid physio-chemical problems that might, albeit remotely, arise if ethanol is administered orally, applicant also determined the intraperitoneal ED50 of ethanol in fasted mice.

[17] = ethanol 0.50 ml per mouse, ammonium thiosulfate pretreated
[18] = ethanol 0.63 ml per mouse, ammonium thiosulfate pretreated
[19] = ethanol 0.75 ml per mouse, ammonium thiosulfate pretreated
[20] = ethanol 0.87 ml per mouse, ammonium thiosulfate pretreated
[21] = ethanol 1.00 ml per mouse, ammonium thiosulfate pretreated
[22] = ethanol 0.05 ml per mouse, non-pretreated
[23] = ethanol 0.10 ml per mouse, non-pretreated
[24] = ethanol 0.15 ml per mouse, non-pretreated
[25] = ethanol 0.20 ml per mouse, non-pretreated
[26] = ethanol 0.30 ml per mouse, non-pretreated
[27] = ethanol 0.50 ml per mouse, non-pretreated

CC(=O)O [Ammonium acetate, ammonium acetate]
pH of 5 Weight Percent Solution [1]: 6.790 | efficacy in altering the effects of alcohol in mice (effects of alcohol [2]; mice): Good results | clinical or analytic noxious effects (humans [3]): no clinical or analytic noxious effects | acute, subacute and chronic toxicity (mice [4]): low toxicity | acute, subacute and chronic toxicity (rats [5]): low toxicity

Cl.N [Ammonium chloride, ammonium chloride, reference compound]
pH of 5 Weight Percent Solution [1]: 4.761 | amethystic effect [6]: does not appear to act as an amethystic agent

N.NS(=O)(=O)O [Ammonium sulfamate, ammonium sulfamate]
pH of 5 Weight Percent Solution [1]: 5.335

N.N.O=S(O)(O)=S [Ammonium thiosulfate, ammonium thiosulfate]
pH of 5 Weight Percent Solution [1]: 5.966 | percent of pure ammonium thiosulfate required to protect 50% of the mice ([7]; 0.6 ml/mouse oral as basic dose): 3.6 (2.63-4.93%) | Fraction Protected ([7]; 1.25% ammonium thiosulfate): 0/10 | Percent (protected) ([7]; 1.25% ammonium thiosulfate): 0% | Fall from rod in 10 sec. (individual mouse) ([7]; 1.25% ammonium thiosulfate, 0.6 ml/mouse oral, 30% ethanol 0.5 ml/mouse): + | Fraction Protected ([7]; 2.5% ammonium thiosulfate): 3/10 | Percent (protected) ([7]; 2.5% ammonium thiosulfate): 30% | Fraction Protected ([7]; 5.0% ammonium thiosulfate): 7/10 | Percent (protected) ([7]; 5.0% ammonium thiosulfate): 70% | Fraction Protected ([7]; 7.5% ammonium thiosulfate): 8/10 | Percent (protected) ([7]; 7.5% ammonium thiosulfate): 80% | Fraction Protected ([7]; 10.0% ammonium thiosulfate): 8/10 | Percent (protected) ([7]; 10.0% ammonium thiosulfate): 80% | additional drinks consumed without typical manifestations of the effects of alcohol [8]: up to 8 additional drinks | comparative effect on mice of ammonium thiosulfate and ammonium sulfate (effects of alcohol [2]): approximately equally effective | ED50 of 30% ethanol in pretreated mice ([9]; 30% (v/v) ethanol oral, ammonium thiosulfate pretreated): 0.76 ml/mouse | oral ED50 of ethanol in ammonium thiosulfate pretreated animals ([9]; 30% (v/v) ethanol, 95% limits 0.65-0.90 ml): 0.76 mL | increase in ethanol required to induce neurological deficit following pretreatment ([9]; ammonium thiosulfate pretreated vs non-pretreated mice): nearly five times | Fraction Falling From Rod in 10 sec. [9, 17]: 1/10 | Percent Falling [9, 17]: 10% | Fall from rod in 10 sec. (individual mouse) ([9]; ethanol 0.5 ml, 0.6 ml of 10% ammonium thiosulfate solution oral, 30 min before): - and + | Fraction Falling From Rod in 10 sec. [9, 18]: 2/10 | Percent Falling [9, 18]: 20% | Fall from rod in 10 sec. (individual mouse) ([9]; ethanol 0.63 ml, 0.6 ml of 10% ammonium thiosulfate solution oral, 30 min before): - and + | Fraction Falling From Rod in 10 sec. [9, 19]: 4/10 | Percent Falling [9, 19]: 40% | Fall from rod in 10 sec. (individual mouse) ([9]; ethanol 0.75 ml, 0.6 ml of 10% ammonium thiosulfate solution oral, 30 min before): + and ° and - | Fraction Falling From Rod in 10 sec. [9, 20]: 7/10 | Percent Falling [9, 20]: 70% | Fall from rod in 10 sec. (individual mouse) ([9]; ethanol 0.87 ml, 0.6 ml of 10% ammonium thiosulfate solution oral, 30 min before): + and - | Fraction Falling From Rod in 10 sec. [9, 21]: 10/10 | Percent Falling [9, 21]: 100% | Fall from rod in 10 sec. (individual mouse) ([9]; ethanol 1.00 ml, ammonium thiosulfate solution dose printed as 0.0 ml): + | Fall from rod in 10 sec. (individual mouse) [10]: - and + | No. Protected/No. Treated [10]: 8/10 | effectiveness as inhibitors of ethanol-induced neurological deficit [10]: highly effective | relative potency of ammonium thiosulfate and ammonium sulfate ([10]; single test): essentially equipotent | acute, subacute and chronic toxicity (mice [11]): low toxicity | acute, subacute and chronic toxicity (rats [12]): low toxicity | clinical or analytic noxious effects (humans [13]): no clinical or analytic noxious effects | expected effect in altering the effects of alcohol ingestion in humans (effects of alcohol [14]): substantially greater

CCO [Ethanol, ethanol]
ED50 (95% Limit) (neurological deficit [15]; 30% (v/v) ethanol oral, non-pretreated, 95% limit 0.13-0.22): 0.17 mL | oral ED50 of 30% ethanol for neurological deficit, non-pretreated mice (neurological deficit [15]; 30% (v/v) ethanol, 95% fiducial limits 0.13 to 0.22 ml/mouse): 0.17 ml/mouse | Fall from rod in 10 sec. (individual mouse) (neurological deficit [15]; ethanol 0.05 ml oral, non-pretreated): - | Fraction Falling From Rod in 10 sec. (neurological deficit [15]; [22]): 0/5 | Percent Falling (neurological deficit [15]; [22]): 0% | Fraction Falling From Rod in 10 sec. (neurological deficit [15]; [23]): 2/10 | Percent Falling (neurological deficit [15]; [23]): 20% | Fraction Falling From Rod in 10 sec. (neurological deficit [15]; [24]): 4/10 | Percent Falling (neurological deficit [15]; [24]): 40% | Fraction Falling From Rod in 10 sec. (neurological deficit [15]; [25]): 7/10 | Percent Falling (neurological deficit [15]; [25]): 70% | Fraction Falling From Rod in 10 sec. (neurological deficit [15]; [26]): 4/5 | Percent Falling (neurological deficit [15]; [26]): 80% | Fall from rod in 10 sec. (individual mouse) (neurological deficit [15]; ethanol 0.5 ml oral, non-pretreated): + | Fraction Falling From Rod in 10 sec. (neurological deficit [15]; [27]): 10/10 | Percent Falling (neurological deficit [15]; [27]): 100% | intraperitoneal ED50 of 30% ethanol (neurological deficit [16]): 0.15 ml/mouse

N[C@@H](Cc1ccc(O)c(O)c1)C(=O)O [L-dopa]
amethystic effect [6]: most effective amethystic agent

ammonium sulfate
pH of 5 Weight Percent Solution [1]: 5.263 | comparative effect on mice of ammonium thiosulfate and ammonium sulfate (effects of alcohol [2]): approximately equally effective | Fall from rod in 10 sec. (individual mouse) [10]: - and + | No. Protected/No. Treated [10]: 7/10 | effectiveness as inhibitors of ethanol-induced neurological deficit [10]: highly effective | clinical or analytic noxious effects (humans [3]): no clinical or analytic noxious effects
